Results on 15 molecules are retold here after PubChem BioAssay (NCI).

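1) Cells in 96-well plates. 2) Compound, 48 h, 5 concentrations. 3) Linear interpolation between surrounding doses. 4) Unreached endpoint = highest concentration. GI50: concentration for 50% inhibition of growth. At the TGI there is no net growth.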 Some results are limits rather than exact numbers.

Test systems include CCRF-CEM leukemia; DU-145 prostate; NCI/ADR-RES ovarian; OVCAR-5 ovarian; NCI-H226 lung; T-47D breast; SW-620 colon; UO-31 renal; SNB-75 CNS; MDA-MB-435.
Holding throughout (assay): growth of human tumour cells (NCI), 48 h

As to `Cc1ccc(C(=O)N/N=C/c2cccc(Oc3ccccc3)c2)cn1`, the GI50 with CCRF-CEM leukemia is 4.25 µM; in the assay on DU-145 prostate, 18.7 µM; in the assay on NCI/ADR-RES ovarian, 4.43 µM; with OVCAR-5 ovarian it was greater than 100 µM; with NCI-H226 lung, greater than 64.5 µM; in the assay with T-47D breast it was 6.3 µM. The results for the GI50 in the assay on SW-620 colon, with UO-31 renal and with SNB-75 CNS were 4.79 µM, 19.6 µM and 4.85 µM, respectively. Further, the TGI in the assay on CCRF-CEM leukemia is greater than 100 µM; in the assay on DU-145 prostate, greater than 100 µM; in the assay on NCI/ADR-RES ovarian, greater than 71.4 µM; with OVCAR-5 ovarian it was greater than 100 µM; in the assay with NCI-H226 lung, greater than 100 µM; with T-47D breast it was greater than 74.3 µM. Besides, the TGI in the assay with SW-620 colon is greater than 100 µM; with UO-31 renal, greater than 100 µM; in the assay on SNB-75 CNS, greater than 60.7 µM.

Take `Cc1nn2c(/C=C3/C(=O)Nc4ccc(Cl)cc43)c(-c3ccccc3)nc2s1`: the GI50 in the assay on CCRF-CEM leukemia was 4.06 µM; with DU-145 prostate, 2.69 µM; in the assay with OVCAR-5 ovarian, 8.38 µM; in the assay on NCI-H226 lung, 1.51 µM; in the assay with T-47D breast it was 1.71 µM; with SW-620 colon it was 4.51 µM. Further, the GI50 in the assay with MDA-MB-435 is 3.24 µM; in the assay on UO-31 renal it was 1.07 µM; in the assay with SNB-75 CNS, 1.19 µM. Further, the TGI in the assay on CCRF-CEM leukemia was 23.7 µM; in the assay with DU-145 prostate, 7.2 µM; in the assay with OVCAR-5 ovarian, 25.9 µM; in the assay on NCI-H226 lung, 4.6 µM; in the assay on T-47D breast it was 11.5 µM; with SW-620 colon it was 19.7 µM. For the same molecule, the TGI in the assay on MDA-MB-435 turned out to be 13.5 µM; with UO-31 renal, 13.2 µM; in the assay with SNB-75 CNS it was 2.69 µM.

Take `O=C(O)c1ccc([N+](=O)[O-])c2c(=O)c3ccccc3[nH]c12`: the TGI with CCRF-CEM leukemia, in the assay with OVCAR-5 ovarian, with SW-620 colon, with UO-31 renal and with SNB-75 CNS was greater than 100 µM in each case.

On to `CCN(CC)C(=S)N/N=C(\C)c1ccccc1O`, for which the TGI in the assay on CCRF-CEM leukemia was 78 µM; in the assay with NCI-H226 lung, 56.8 µM; in the assay with SW-620 colon, greater than 100 µM; with UO-31 renal, 61.9 µM; in the assay on SNB-75 CNS, greater than 100 µM.

For the molecule `CCCCC(=O)[O-].N.N.N.N.N.[Co+3].[O-][Cl+3]([O-])([O-])[O-]`, the GI50 was greater than 100 µM in the assay on CCRF-CEM leukemia; greater than 100 µM in the assay on OVCAR-5 ovarian; greater than 100 µM with SW-620 colon; greater than 100 µM in the assay on UO-31 renal; 49.3 µM in the assay with SNB-75 CNS. Also, the TGI in the assay on CCRF-CEM leukemia, in the assay with OVCAR-5 ovarian, with SW-620 colon, with UO-31 renal and with SNB-75 CNS was greater than 100 µM throughout.

Consider `CCOC(=O)[C@@H](C)C[C@H](Cc1ccccc1)NC(=O)c1csc([C@@H](C[C@H](C(C)C)N(C)C(=O)[C@H](CCC(C)C)NC(=O)[C@H]2CCCCN2C)OC(C)=O)n1`, for which the GI50 with CCRF-CEM leukemia is 0.006 µM; in the assay on DU-145 prostate it was 0.00892 µM; in the assay with NCI/ADR-RES ovarian, 0.143 µM; with OVCAR-5 ovarian, 0.0115 µM; in the assay on NCI-H226 lung, 0.0495 µM; in the assay with SW-620 colon, less than 0.00333 µM. Moreover, in the assay on UO-31 renal, the GI50 was 0.0227 µM. The TGI in the assay on CCRF-CEM leukemia was found to be 4.35 µM; with DU-145 prostate, 26.2 µM; in the assay with NCI/ADR-RES ovarian it was 24 µM; in the assay with OVCAR-5 ovarian it was 10.3 µM; in the assay on NCI-H226 lung, 11.6 µM; in the assay with SW-620 colon, 7.14 µM. Moreover, the TGI in the assay on UO-31 renal came out at 5.14 µM.

With `CCc1nc2ccc(Cc3ccc(C(=O)NO)cc3)cc2c(=O)n1CCc1ccccc1`, the GI50 in the assay on CCRF-CEM leukemia was 0.568 µM; with DU-145 prostate it was 1.09 µM; with NCI/ADR-RES ovarian, 0.37 µM; in the assay on OVCAR-5 ovarian, 1.36 µM; with NCI-H226 lung it was 1.24 µM; in the assay with T-47D breast, 0.809 µM. Besides, the GI50 is 0.412 µM in the assay with SW-620 colon and 1.41 µM in the assay with SNB-75 CNS. For the same molecule, the TGI in the assay on CCRF-CEM leukemia was greater than 100 µM; in the assay with DU-145 prostate it was 7.81 µM; in the assay on NCI/ADR-RES ovarian, 4.59 µM; in the assay with OVCAR-5 ovarian, 12.8 µM; with NCI-H226 lung, 3.05 µM; in the assay with T-47D breast, 5.41 µM. Further, the TGI in the assay on SW-620 colon was determined as 2.23 µM; in the assay on SNB-75 CNS it was 3.71 µM.

On to `O=C(c1ccc(NCN2C(=O)CCC2=O)cc1)c1ccc(NCN2C(=O)CCC2=O)cc1`, for which the TGI in the assay with CCRF-CEM leukemia, in the assay on OVCAR-5 ovarian, in the assay on SW-620 colon and with UO-31 renal was greater than 100 µM each time.

In the case of `CNS(=O)(=O)NN(C)S(=O)(=O)c1ccc(Br)cc1`, the TGI in the assay with CCRF-CEM leukemia, in the assay with NCI-H226 lung, in the assay with SW-620 colon, with UO-31 renal and with SNB-75 CNS was greater than 100 µM each time.

Consider `O=C(N/N=C/c1cc(Br)cc(Br)c1[O-])c1ccccc1O.O=C(N/N=C/c1cc(Br)cc(Br)c1[O-])c1ccccc1O.[Mn+2]`, for which, in the assay on CCRF-CEM leukemia, the GI50 was 0.263 µM. Besides, the TGI with CCRF-CEM leukemia came to 6.42 µM; in the assay with OVCAR-5 ovarian, 16.4 µM; in the assay with NCI-H226 lung it was 11 µM; in the assay on SW-620 colon it was 24.1 µM; in the assay on UO-31 renal it was 24.2 µM; with SNB-75 CNS, 15.5 µM.

For `O[C@]12CCCC[C@H]1CCC2`, the TGI in the assay on CCRF-CEM leukemia, in the assay with OVCAR-5 ovarian, in the assay on SW-620 colon, with UO-31 renal and in the assay with SNB-75 CNS was greater than 100 µM each time.

On to `C=CCN=C1N=C(CC(=O)OCC)CS1`, for which the TGI in the assay with CCRF-CEM leukemia, in the assay on OVCAR-5 ovarian, with NCI-H226 lung, with SW-620 colon, with UO-31 renal and in the assay on SNB-75 CNS was greater than 100 µM in each case.

As to `COC1=C(C(=O)OC(C)(C)C)[C@]2(C)C(C(=O)OC(C)(C)C)C(OC)=C(C(=O)OC(C)(C)C)[C@]2(C)C1C(=O)OC(C)(C)C` (stereo partly specified), the TGI with CCRF-CEM leukemia, with OVCAR-5 ovarian, with NCI-H226 lung, in the assay on SW-620 colon, in the assay on UO-31 renal and with SNB-75 CNS was greater than 100 µM in each case.

`CCOC(=O)NC(=O)c1cn(CCCOC(=O)CCCCCCCCC(=O)OCCCn2cc(C(=O)NC(=O)OCC)c(=O)[nH]c2=O)c(=O)[nH]c1=O`: the TGI is 21.6 µM in the assay on CCRF-CEM leukemia, 60.3 µM in the assay with SW-620 colon and greater than 100 µM with SNB-75 CNS.

In the case of `CC(=O)Oc1cccc2c1C(=O)C(Br)(Br)CCC2`, the TGI stood at 9.91 µM in the assay on CCRF-CEM leukemia; 26.6 µM in the assay with DU-145 prostate; 21.9 µM in the assay on OVCAR-5 ovarian; 20.1 µM in the assay with NCI-H226 lung; 4.61 µM in the assay with T-47D breast; 9.13 µM in the assay on SW-620 colon. For the same molecule, the TGI was 13.4 µM in the assay with MDA-MB-435, 23.2 µM with UO-31 renal and 16.5 µM with SNB-75 CNS.
